The assay addresses hROMK (hKir1.1) (Homo sapiens (Human), UniProt P48048). The experiment in a line: Thallium Flux Assay (ROMK channel functional thallium flux assay, FLIPR-Tetra). The assay is classed as cell-based. The settings on record: HEK293 cells stably expressing hROMK (hKir1.1); 30 min incubation with test compound. The procedure:
The following Thallium Flux Assay was performed on each of the final product compounds in the Examples.
HEK293 cells stably expressing hROMK (hKir1.1) were grown at 37° C. in a 10% CO2 humidified incubator in complete growth media: Dulbecco's Modified Eagle Medium supplemented with non-essential amino acids, Penicillin/Streptomycin/Glutamine, G418 and FBS. At >80% confluency, aspirate the media from the flask and rinse with 10 mL Calcium/Magnesium-free PBS. 5 mL of 1× trypsin (prepared in Ca/Mg Free PBS) was added to a T-225 flask and the flask was returned to the 37° C./CO2 incubator for 2-3 minutes. The cell was dislodged by genitly banging the side of the flask by hand. The cells were titrated completely and then the cells were transferred to 25 mL complete media. The cells were centrifuged at 1,500 rpm for 6 min followed by resuspension in complete growth media and cell concentration was determined. 4E6 cells/T-225 flask attained >80% confluency in 4 days. Under ideal growth conditions and appropriate tissue culture practices, this cell line was stable for 40-45 passages.
FluxOR Kit Components (Invitrogen F10017)
• FluxOR™ Reagent (Component A) • FluxOR™ Assay Buffer (Component B)—10× Concentrate • PowerLoad™ Concentrate (Component C)—100× Concentrate • Probenecid (Component D)—Lyophilized sample is kept at −20° C. Water soluble, 100× after solubilization in 1 mL water. Store at 4° C. • FluxOR™ Chloride-free Buffer (Component E)—5× Concentrate • Potassium sulfate (K2SO4) Concentrate (Component F)—125 mM in water. Store at 4° C. • Thallium sulfate (TI2SO4) Concentrate (Component G)—50 mM in water. Store at 4° C. • DMSO (dimethyl sulfoxide, Component H)—1 mL (100%) Reagent Preparation: FluxOR Working Solutions • 1000× FluxOR™ Reagent: Reconstitute a vial of component A in 100 μl DMSO; Mix well; Store 10 μl aliquots at −20° C. • 1× FluxOR™ Assay Buffer: Dilute Component B 10-fold with water; Adjust pH to 7.4 with Hepes/NaOH; Filter and store at 4° C. • Probenecid/Assay Buffer: 100 mL of 1× FluxOR™ Assay Buffer; 1 mL of reconstituted component D; Store at 4° C. • Loading Buffer (per microplate): 10 μl 1000× FluxOR™ Reagent; 100 μl component C; 10 mL Probenecid/Assay Buffer • Compound Buffer (per microplate): 20 mL Probenecid/Assay Buffer; 0.3 mM ouabain (10 mM ouabain in water can be stored in amber bottle/aluminum foil at room temperature); Test compound • 1× FluxOR™ Chloride-Free Buffer: Prepare 1× working solution in water. Can be stored at room temperature • Stimulant Buffer (prepared at 5× final concentration in 1× FluxOR™ Chloride-Free Buffer): 7.5 mM Thallium sulfate and 0.75 mM Potassium sulfate (to give a final assay concentration of 3 mM Thallium/0.3 mM Potassium). Store at 4° C. when not in use. If kept sterile, this solution is good for months. Assay Protocol—
The ROMK channel functional thallium flux assay was performed in 384 wells, using the FLIPR-Tetra instrument. HEK-hKir1.1 cells were seeded in Poly-D-Lysine microplates and kept in a 37° C.-10% CO2 incubator overnight. On the day of the experiment, the growth media was replaced with the FluxOR™ reagent loading buffer and incubated, protected from light, at ambient temperature (23-25° C.) for 90 min. The loading buffer was replaced with assay buffer±test compound followed by 30 min incubation at ambient temperature, where the Thallium/Potassium stimulant was added to the microplate.
1. Seed HEK-hKir1.1 cells (50 μl at 20,000 cells/well) in 384-well PDL coated Microplates
2. Allow cells to adhere overnight in humidified 37° C./10% CO2 incubator
3. Completely remove cell growth media from microplate and replace with 25 μl loading buffer
4. Incubate Microplate at room temperature, protected form light, for 90 min
5. Remove loading buffer and replace with 25 μl 1× Assay Buffer±test compound.
6. Incubate microplate at room temperature, protected from light, for 30 min
7. At FLIPR-Tetra 384: Add stimulant (Thallium/Potassium) solution to microplate and monitor fluorescence. […]
Sequence of hROMK (hKir1.1) (P48048 whole entry): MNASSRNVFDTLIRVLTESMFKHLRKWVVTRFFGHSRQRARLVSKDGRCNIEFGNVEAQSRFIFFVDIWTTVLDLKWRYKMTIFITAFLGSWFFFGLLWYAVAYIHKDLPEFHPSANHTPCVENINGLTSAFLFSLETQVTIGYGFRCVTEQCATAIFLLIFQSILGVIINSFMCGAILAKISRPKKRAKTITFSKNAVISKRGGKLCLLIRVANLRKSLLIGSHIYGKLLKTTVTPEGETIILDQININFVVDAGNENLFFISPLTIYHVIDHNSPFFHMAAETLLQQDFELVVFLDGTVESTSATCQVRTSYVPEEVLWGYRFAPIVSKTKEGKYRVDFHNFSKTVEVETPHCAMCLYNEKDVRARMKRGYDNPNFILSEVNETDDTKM
The term IC50 denotes the concentration at which inhibition is half-maximal. Higher therefore signals weaker potency. The compound “8(1R,3r,5S)-8-(2-hydroxy-2-(2-methyl-6-(1H-tetrazol-1-yl)60icycle60-3-yl)ethyl)-1′-(2-methyl-3-oxocyclopent-1-en-1-yl)-8-azaspiro[bicyclo[3.2.1]octane-3,3′-pyrrolidin]-2′-one [Example 5]” registered an IC50 of 49.1 nM.

In turn, `Cc1nc(-n2cnnn2)ccc1C(O)CN1CCC2(CC1)CCN(C1=CS(=O)(=O)CC1)C2=O` (single isomer, unassigned) [Example 1, 2-(1,1-dioxido-4,5-dihydrothiophen-3-yl)-8-(2-hydroxy-2-(2-methyl-6-(1H-tetrazol-1-yl)pyridin-3-yl)ethyl)-2,8-diazaspiro[4.5]decan-1-one] gave an IC50 of 640 nM. This IC50 is about 13-fold higher than that of the compound before.

Compound `CC1=C(N2CCC3(CCCN(CC(O)c4ccc(-n5cnnn5)nc4C)CC3)C2=O)CCC1=O` (single isomer, unassigned) [Example 3A, 8-(2-hydroxy-2-(2-methyl-6-(1H-tetrazol-1-yl)pyridin-3-yl)ethyl)-2-(2-methyl-3-oxocyclopent-1-en-1-yl)-2,8-diazaspiro[4.6]undecan-1-one] registered an IC50 of 323 nM. This IC50 lies about 2-fold lower than the previous one.

`CC1=C(N2CCC3(CCCN(CC(O)c4ccc(-n5cnnn5)nc4C)CC3)C2=O)CCC1=O` (single isomer, unassigned) [Example 3B, 8-(2-hydroxy-2-(2-methyl-6-(1H-tetrazol-1-yl)pyridin-3-yl)ethyl)-2-(2-methyl-3-oxocyclopent-1-en-1-yl)-2,8-diazaspiro[4.6]undecan-1-one] came in with an IC50 of 86.3 nM.

For the compound `CC1=C(N2CCC3(CC4CCC(C3)N4CC(O)c3ccc(-n4cnnn4)cn3)C2=O)CCC1=O` [Example 6, (1R,3r,5S)-8-(2-(5-(1H-tetrazol-1-yl)pyridin-2-yl)-2-hydroxyethyl)-1′-(2-methyl-3-oxocyclopent-1-en-1-yl)-8-azaspiro[bicyclo[3.2.1]octane-3,3′-pyrrolidin]-2′-one], the IC50 was 294 nM.

The compound `Cc1c([C@@H](O)CN2CCC3(CC2)CCN(C2=CC(=O)CC2)C3=O)ccc2c1COC2=O` [Example 11] showed an IC50 of 122 nM. This IC50 lies about 2.4-fold lower than the previous one.

As to `Cc1c([C@@H](O)CN2CCC3(CC2)CC(=O)N(C2=CC(=O)CC2)C3)ccc2c1COC2=O` [Example 12], it took 521 nM to reach half-maximal inhibition (IC50).

Consider `Cc1nc(-n2cnnn2)ccc1C(O)CN1CCC2(CC1)CC(=O)N(C1=CC(=O)CC1)C2` (centres unmarked) [Example 13], for which inhibition was half-maximal at 356 nM (IC50).

On to `Cc1nc(-n2cnnn2)ccc1C(O)CN1CCC2(CC1)CCN(C1=CC(=O)CC1)C2=O` (centres unmarked) [Example 14], for which it took 87 nM to reach half-maximal inhibition (IC50).

Compound `Cc1nc(-n2cnnn2)ccc1C(O)CN1CCC2(CC1)CCN(C1=CS(=O)(=O)CC1)C2=O` (centres unmarked) [Example 15] returned an IC50 of 55.9 nM.

Regarding `Cc1c([C@@H](O)CN2CCC3(CC2)CCN(C2=CS(=O)(=O)CC2)C3=O)ccc2c1COC2=O` [Example 16], half-maximal inhibition (IC50) was put at 276 nM. This IC50 lies about 4.9-fold higher than the previous one.

Consider `Cc1nc(-n2cnnn2)ccc1C(O)CN1CCC2(CC1)CC(=O)N(C1=CS(=O)(=O)CC1)C2` (centres unmarked) [Example 17], for which the IC50 came out at 598 nM.

Take `CC1=C(N2CCC3(CCN(CC(O)c4ccc(-n5cnnn5)nc4C)CC3)C2=O)CCC1=O` (centres unmarked) [Example 18]: inhibition was half-maximal at 47.3 nM (IC50). Compared with the last compound, the IC50 is about 13-fold lower.

Take `CC1=C(N2CCC3(CCN(C[C@H](O)c4ccc5c(c4C)COC5=O)CC3)C2=O)CCC1=O` [Example 19]: it took 62.2 nM to reach half-maximal inhibition (IC50).

For `CC1=C(N2CC3(CCN(C[C@H](O)c4ccc5c(c4C)COC5=O)CC3)CC2=O)CCC1=O` [Example 20], the IC50 is 497 nM.

`CC1=C(N2CCC3(CCN(C[C@H](O)c4ccc(-n5cnnn5)nc4)CC3)C2=O)CCC1=O` [Example 21] showed an IC50 of 118 nM.

Turning to `O=C1N(C2=CS(=O)(=O)CC2)CCC12CCN(C[C@H](O)c1ccc(-n3cnnn3)nc1)CC2` [Example 22], the concentration for half-maximal inhibition (IC50) came to 114 nM.

`O=C1C=C(N2CCC3(CCN(C[C@H](O)c4ccc(-n5cnnn5)nc4)CC3)C2=O)CC1` [Example 23] yielded an IC50 of 187 nM.

As for `CC1=C(N2CCC3(CCN(CC(O)c4ncc(-n5cnnn5)cc4C)CC3)C2=O)CCC1=O` (centres unmarked) [Example 24], it took 386 nM to reach half-maximal inhibition (IC50). This IC50 lies about 2.1-fold higher than the previous one.

`CC1=C(N2CCC3(CCN(CC(O)c4ncc(-n5cnnn5)cc4C)CC3)C2=O)CCC1=O` (centres unmarked) [Example 25]: the IC50 worked out at 347 nM.

For the compound `CC1=C(N2CCC3(CCN(CC(O)c4ccc(-n5cnnn5)cc4C)CC3)C2=O)CCC1=O` (centres unmarked) [Example 26], the IC50 was determined as 87.1 nM.

Regarding `CC1=C(N2CCC3(CCN(CC(O)c4ccc(-n5cnnn5)cc4C)CC3)C2=O)CCC1=O` (centres unmarked) [Example 27], the IC50 worked out at 74.5 nM.

`CC1=C(N2CCC3(CCN(CC(O)c4cnc(-n5cnnn5)c(F)c4)CC3)C2=O)CCC1=O` (centres unmarked) [Example 28] came in with an IC50 of 295 nM.

On to `CC1=C(N2CCC3(CCN(CC(O)c4cnc(-n5cnnn5)c(F)c4)CC3)C2=O)CCC1=O` (centres unmarked) [Example 29], for which the IC50 came to 674 nM.

`O=C1C=C(N2CCC3(CCN(CC(O)c4cnc(-n5cnnn5)c(F)c4)CC3)C2=O)CC1` (centres unmarked) [Example 30]: the IC50 worked out at 415 nM.

As to `O=C1C=C(N2CCC3(CCN(CC(O)c4cnc(-n5cnnn5)c(F)c4)CC3)C2=O)CC1` (centres unmarked) [Example 31], the IC50 was 751 nM.

In turn, `CC1=C(N2CCCC3(CCN(CC(O)c4ccc(-n5cnnn5)nc4C)CC3)C2=O)CCC1=O` (centres unmarked) [Example 32] showed an IC50 of 647 nM.

In the case of `Cc1nc(-n2cnnn2)ccc1C(O)CN1CCC2(CCCN(C3=CC(=O)CC3)C2=O)CC1` (centres unmarked) [Example 33], the IC50 stood at 17.3 nM.

The compound `Cc1c([C@@H](O)CN2CCC3(CCCN(C4=CC(=O)CC4)C3=O)CC2)ccc2c1COC2=O` [Example 34] came in with an IC50 of 10.9 nM.

As for `Cc1cc(-n2cnnn2)ccc1C(O)CN1CCC2(CC1)CCN(C1=CC(=O)CC1)C2=O` (centres unmarked) [Example 35], the IC50 worked out at 196 nM.

Compound `CC1=C(N2CCC3(CCN(CC(O)c4ccc(-n5cnnn5)cc4F)CC3)C2=O)CCC1=O` (centres unmarked) [Example 36] had an IC50 of 531 nM.

`O=C1C=C(N2CCC3(CCN(CC(O)c4ccc(-n5cnnn5)cc4F)CC3)C2=O)CC1` (centres unmarked) [Example 37]: 461 nM corresponded to half-maximal inhibition (IC50).

`Cc1nc(-n2cnnn2)ccc1C(O)CN1CCC2(CCCN(C3=CS(=O)(=O)CC3)C2=O)CC1` (centres unmarked) [Example 38]: the IC50 was 88.7 nM.

`CC1=C(N2CCC3(CCCN(C[C@H](O)c4ccc5c(c4C)COC5=O)CC3)C2=O)CCC1=O` (some centres unmarked) [Example 39] gave an IC50 of 15.1 nM. This IC50 is about 5.9-fold lower than that of the compound before.

For the compound `CC1=C(N2CCC3(CCCN(C[C@H](O)c4ccc5c(c4C)COC5=O)CC3)C2=O)CCC1=O` (some centres unmarked) [Example 40], 71.5 nM corresponded to half-maximal inhibition (IC50).

Consider `Cc1cc(-n2cnnn2)ccc1C(O)CN1CCC2(CCCN(C3=CC(=O)CC3)C2=O)CC1` (centres unmarked) [Example 41], for which the midpoint of inhibition, the IC50, lay at 10.7 nM.

On to `O=C1C=C(N2CCCC3(CCN(CC(O)c4ccc(-n5cnnn5)cn4)CC3)C2=O)CC1` (centres unmarked) [Example 42], for which the IC50 was found to be 59.7 nM.

`CC1=C(N2CCC3(CCCN(CC(O)c4ccc(-n5cnnn5)nn4)CC3)C2=O)CCC1=O` (centres unmarked) [Example 43]: the IC50 is 568 nM.

For `CC1=C(N2CCC3(CCN(CC(O)c4ccc(-n5cnnn5)nn4)CC3)C2=O)CCC1=O` (centres unmarked) [Example 44], the IC50 is 100 nM.

Consider `CC1=C(N2CCOC3(CCN(C[C@H](O)c4ccc5c(c4C)COC5=O)CC3)C2=O)CCC1=O` [Example 45], for which it took 892 nM to reach half-maximal inhibition (IC50).

“(1R,3R,5S)-8-((R)-2-hydroxy-2-(4-methyl-1-oxo-1,3-dihydroisobenzofuran-5-yl)ethyl)-1′-(2-methyl-3-oxocyclopent-1-en-1-yl)-8-azaspiro[bicyclo[3.2.1] octane-3,3′-pyrrolidin]-2′-one [Example 4]”: the IC50 was found to be 474 nM.

The values above are taken from patent US10513518B2, “Inhibitors of the renal outer medullary potassium channel” (Merck Sharp & Dohme Corp., priority 2015, dated 2019).
